Measured values: patent publication US20220212192A1, “Microfluidic Device for High-Throughput Screening of Tumor Cell Adhesion and Motility” (Northeastern University, priority 2019, published 2022)

System: 3D NHL spheroids with active immune cells
Experiment: Proteomic analysis of perfusate media from 3D NHL (lymphoma) spheroids on-chip
Format: cell-based
Conditions: significantly higher than lenalidomide-treated monocultures or spheroids with inactive immune cells, data not shown

## Nc1cccc2c1CN(C1CCC(=O)NC1=O)C2=O (centres unmarked) [lenalidomide]
  secretion of IL8: increased secretion
  secretion of cytolytic granzyme B: increased secretion
